The structures appear in SMILES notation.

Experiment [1] concerns HO-1 (Heme-Oxygenase-1). Nature of the experiment: Immunostaining of HO-1 in human skin explants, image analysis. In kind it is cell-based. The method, then:
(§1) 59 human skin explants of an average diameter of 14 mm (±1 mm) were prepared on an abdoplasty coming from a person. The explants were kept in survival in BEM culture medium at 37° C. in a humid, 5%-CO2 atmosphere.
(§2) The tested products were topically applied on the basis of 2 μl per cm^2 and spread using a small spatula twice a day (morning and evening) on day 0, 1, 2, 3 and 4.
(§3) On D4, the explants of the batches ML and PML were placed on the 3D grid with 900 μl of HBSS and placed into the PolluBox® system.
(§4) 3 mL of the solution <<ML>> (supplemented with 150 μl/ml of NaCl 0.9%) were exposed by vaporization for 1 hour and half, as shown in the figure below.
Heme-Oxygenase is a phase II skin anti-oxidant enzyme which generates cell anti-oxidant molecules. […] The immunostaining was performed using an automated slide processing system (Autostainer, Dako) and assessed by microscopical observation. […]
The images analyses were performed on all the images (9 to 12 images) of each batch using the CellD storing software (Olympus Microscopy, Matrix Optics (M)SdnBhd, Taman Mayhang, Maylasia). For each batch of explants, the percentage of the region of interest covered by the staining (stained surface percentage) was determined by image analysis. […]
Analyzed batches: T, P2, ML, P2ML (4 batches, 3 explants/batch, so 12 explants at day 5 referred to as TJ5, P2J5, MLJ5, P2MLJ5.

Experiment [2] concerns living human skin explants. Nature of the experiment: Biochemical assay of MDA (lipid peroxidation) on living human skin explants exposed to pollutants. In kind it is cell-based. The protocol:
Product A (Table 11) was diluted in water to obtain the following products at concentrations: product P1=A at 4%, product P2=A at 2% and product P3=A at 1%.
as §1, §2, §3, §4
The MDA assay was realized with an enhanced method of the TBARs (Thiobarbituric Acid Reactive Species) assay. The MDA was assayed in HBSS medium by addition of TBARs solution (thiobarbituric acid, hydrochloric acid and tricholoroacetic acid) and placed in a water bath (80° C. for 15 minutes). A lot of substances (like glucose) which are not related with lipoperoxidation, react with thiobarbituric acid (ThioBarbituric Acid Reagents=TBARS), so to enhance the specificity of the assay, the MDA was extracted by a liquid/liquid extraction with butanol. The MDA in butanol was measured in spectrofluorimetry (excitation: 515 nm, emission: 550 nm) using a Tecan Infinite M200 Pro microplate reader. Using this assay, MDA contained in the culture medium BEMc on […] was measured for the 4 explants per batch. The MDA concentration was expressed in pmol of MDA/ml of the medium. Concerned batches: all batches on day 5, 4 explants per batch.
The average of the blank batch TJ5 was calculated (154.0 nmol/L). Then, for each explant of MLJ5, this average value was subtracted from […]. That corresponds to calculating the delta (increase) of MDA induced by ML for each explant compared to the average of the batch without ML, it is ΔML.
These average deltas were then compared to the average delta of MDA induction without treatment (ΔML).

As for `O=C(O)[C@@H]1CCCN1` [Combination P4, L-Proline], the “effect on pollutant-induced HO-1” value in experiment [1] (after pollutants exposure) is “strongly reduced the effect of the pollutants”. Also, the “effect on HO-1 expression” value in experiment [1] (without pollutants, D5) is recorded as “does not seem to affect the HO-1 expression”. In addition, in experiment [2] (MDA induction by pollutants, day 5), the “MDA, variation ΔPML vs ΔML” value is on record as −34% #^. Moreover, in experiment [2] (after pollutant exposure (ΔPML vs ΔML)), the “reduction of the increase of MDA” value came to 34%. In experiment [2] (after pollutants exposure, day 5), the “MDA, variation PML vs ML” value was −10% ns.

The record behind these values is US20210369583A1, “COMPOSITIONS FOR PROVIDING SKIN CARE BENEFITS AND METHODS OF USE” (Danisco US Inc., priority 2018, published 2021).
